Experimental findings from patent US8969363B2, “Heterocyclic compounds and uses thereof” (Infinity Pharmaceuticals, Inc., priority 2011, dated 2015) are described below.

One assay addresses T1, PI3Kγ (Homo sapiens, UniProt P48736).
T1 construct: purchased Millipore Corporation 14-558-K
In words: PI3 Kinase HTRF assay, PI3Kγ. As to conditions: 10 μM PIP2, 10 μM ATP; 'Greater than 10 μM' and 'Greater than 1 μM to 10 μM'; read-out: PI3K γ IC50. The format is biochemical. The text has this: (§1) A PI3-Kinase HTRF® assay kit (cat No. 33-016) purchased from Millipore Corporation was used to screen compounds provided herein. This assay used specific, high affinity binding of the GRP1 pleckstrin homology (PH) domain to PIP3, the product of a Class 1A or 1B PI3 Kinase acting on its physiological substrate PIP2. During the detection phase of the assay, a complex was generated between the GST-tagged PH domain and biotinylated short chain PIP3. The biotinylated PIP3 and the GST-tagged PH domain recruited fluorophores (Streptavidin-Allophycocyanin and Europium-labeled anti-GST respectively) to form the fluorescence resonance energy transfer (FRET) architecture, generating a stable time-resolved FRET signal. The FRET complex was disrupted in a competitive manner by non-biotinylated PIP3, a product formed in the PI3 Kinase assay.
(§2) PI3 Kinase α, β, γ and δ activity was assayed using the PI3 Kinase HTRF® assay kit (catalogue No. 33-016) purchased from Millipore Corporation. Purified recombinant PI3Kα (catalogue No. 14-602-K), PI3Kβ (catalogue No. 14-603-K), PI3Kγ (catalogue No. 14-558-K) and PI3Kδ (catalogue No. 14-604-K) were obtained from Millipore Corporation. Purified recombinant PI3K enzyme was used to catalyze the phosphorylation of phosphatidylinositol 4,5-bisphosphate (PIP2 at 10 μM) to phosphatidylinositol 3,4,5-trisphosphate (PIP3) in the presence of 10 μM ATP. The assay was carried out in 384-well format and detected using a Perkin Elmer EnVision Xcite Multilabel Reader. Emission ratios were converted into percent inhibitions and imported into GraphPad Prism software. The concentration necessary to achieve inhibition of enzyme activity by 50% (IC50) was calculated using concentrations ranging from 20 μM to 0.1 nM (12-point curve). IC50 values were determined using a nonlinear regression model available in GraphPad Prism 5. […]

A further assay has as its target PI3Kβ. Kind of assay: PI3 Kinase HTRF assay, PI3Kβ. The format is biochemical, human. As to conditions: 10 μM PIP2, 10 μM ATP; 'Greater than 10 μM' and 'Greater than 1 μM to 10 μM'; read-out: PI3K β IC50. The gist of the method:
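Recombinant PI3Kβ converting PIP2 (10 μM) to PIP3 with 10 μM ATP; PIP3 detected by competitive HTRF displacement of biotin-PIP3/GST-GRP1 PH domain complex. Emission ratios converted to % inhibition; IC50 by nonlinear regression.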
(Time-resolved FRET reads energy transfer from a long-lived donor to a nearby acceptor.)

Another assay concerns the target T2, PI3Kα (Homo sapiens, UniProt P42336).
T2 construct: purchased Millipore Corporation 14-602-K
In words: PI3 Kinase HTRF assay, PI3Kα. The format is biochemical. As to conditions: 10 μM PIP2, 10 μM ATP; 'Greater than 10 μM' and 'Greater than 1 μM to 10 μM'; read-out: PI3K α IC50.
From the text: as §1, §2

The next assay deals with Balb/c splenic B cells. In words: B cell activation and proliferation assay (Alamar Blue). Format: cell-based. As to conditions: Mus musculus. On the procedure: The ability of one or more subject compounds to inhibit B cell activation and proliferation is determined according to standard procedures known in the art. For example, an in vitro cellular proliferation assay is established that measures the metabolic activity of live cells. The assay is performed in a 96 well microtiter plate using Alamar Blue reduction. Balb/c splenic B cells are purified over a Ficoll-Paque™ PLUS gradient followed by magnetic cell separation using a MACS B cell Isolation Kit (Miletenyi). Cells are plated in 90 μl at 50,000 cells/well in B Cell Media (RPMI+10% FBS+Penn/Strep+50 μM bME+5 mM HEPES). A compound provided herein is diluted in B Cell Media and added in a 10 μl volume. Plates are incubated for 30 min at 37° C. and 5% CO2 (0.2% DMSO final concentration). A 50 μl B cell stimulation cocktail is then added containing either 10 μg/ml LPS or 5 μg/ml F(ab′)2 Donkey anti-mouse […] plus 2 ng/ml recombinant mouse IL4 in B Cell Media. Plates are incubated for 72 hours at 37° C. and 5% CO2. A volume of 15 μL of Alamar Blue reagent is added to each well and plates are incubated for 5 hours at 37° C. and 5% CO2. Alamar Blue fluoresce is read at 560Ex/590Em, and IC50 or EC50 values are calculated using GraphPad Prism 5.
A general note: The colour change of resazurin is a common sign of viable cells or microbes.

Sequence of PI3Kβ (Q8BTI9 whole entry, the tested form may be a part): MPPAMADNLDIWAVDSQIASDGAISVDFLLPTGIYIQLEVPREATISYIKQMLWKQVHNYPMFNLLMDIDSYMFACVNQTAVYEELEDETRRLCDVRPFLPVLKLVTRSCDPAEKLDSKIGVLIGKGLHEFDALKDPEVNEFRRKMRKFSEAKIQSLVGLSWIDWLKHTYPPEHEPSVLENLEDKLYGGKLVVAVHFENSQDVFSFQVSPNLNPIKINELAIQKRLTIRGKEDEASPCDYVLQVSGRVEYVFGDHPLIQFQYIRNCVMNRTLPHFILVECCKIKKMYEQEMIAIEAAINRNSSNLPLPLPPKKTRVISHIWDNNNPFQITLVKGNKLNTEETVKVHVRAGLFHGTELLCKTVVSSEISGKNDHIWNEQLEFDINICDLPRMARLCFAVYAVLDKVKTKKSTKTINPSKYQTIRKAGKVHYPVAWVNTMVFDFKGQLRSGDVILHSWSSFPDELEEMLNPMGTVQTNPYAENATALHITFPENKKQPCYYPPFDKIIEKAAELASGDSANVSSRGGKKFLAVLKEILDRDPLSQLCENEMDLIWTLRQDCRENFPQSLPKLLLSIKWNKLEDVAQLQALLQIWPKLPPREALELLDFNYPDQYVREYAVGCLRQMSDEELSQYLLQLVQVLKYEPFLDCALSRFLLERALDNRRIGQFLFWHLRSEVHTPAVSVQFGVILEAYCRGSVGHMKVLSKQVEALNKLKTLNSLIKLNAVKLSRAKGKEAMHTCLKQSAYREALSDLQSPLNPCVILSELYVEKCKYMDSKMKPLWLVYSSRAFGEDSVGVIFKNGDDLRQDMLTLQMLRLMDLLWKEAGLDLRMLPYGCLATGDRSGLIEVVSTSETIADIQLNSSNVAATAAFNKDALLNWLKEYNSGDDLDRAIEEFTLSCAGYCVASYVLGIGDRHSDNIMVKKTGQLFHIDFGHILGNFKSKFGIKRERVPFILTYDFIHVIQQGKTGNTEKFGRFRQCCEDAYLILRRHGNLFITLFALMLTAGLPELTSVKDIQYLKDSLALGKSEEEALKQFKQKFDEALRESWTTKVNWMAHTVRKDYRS
T1 sequence (P48736 whole entry): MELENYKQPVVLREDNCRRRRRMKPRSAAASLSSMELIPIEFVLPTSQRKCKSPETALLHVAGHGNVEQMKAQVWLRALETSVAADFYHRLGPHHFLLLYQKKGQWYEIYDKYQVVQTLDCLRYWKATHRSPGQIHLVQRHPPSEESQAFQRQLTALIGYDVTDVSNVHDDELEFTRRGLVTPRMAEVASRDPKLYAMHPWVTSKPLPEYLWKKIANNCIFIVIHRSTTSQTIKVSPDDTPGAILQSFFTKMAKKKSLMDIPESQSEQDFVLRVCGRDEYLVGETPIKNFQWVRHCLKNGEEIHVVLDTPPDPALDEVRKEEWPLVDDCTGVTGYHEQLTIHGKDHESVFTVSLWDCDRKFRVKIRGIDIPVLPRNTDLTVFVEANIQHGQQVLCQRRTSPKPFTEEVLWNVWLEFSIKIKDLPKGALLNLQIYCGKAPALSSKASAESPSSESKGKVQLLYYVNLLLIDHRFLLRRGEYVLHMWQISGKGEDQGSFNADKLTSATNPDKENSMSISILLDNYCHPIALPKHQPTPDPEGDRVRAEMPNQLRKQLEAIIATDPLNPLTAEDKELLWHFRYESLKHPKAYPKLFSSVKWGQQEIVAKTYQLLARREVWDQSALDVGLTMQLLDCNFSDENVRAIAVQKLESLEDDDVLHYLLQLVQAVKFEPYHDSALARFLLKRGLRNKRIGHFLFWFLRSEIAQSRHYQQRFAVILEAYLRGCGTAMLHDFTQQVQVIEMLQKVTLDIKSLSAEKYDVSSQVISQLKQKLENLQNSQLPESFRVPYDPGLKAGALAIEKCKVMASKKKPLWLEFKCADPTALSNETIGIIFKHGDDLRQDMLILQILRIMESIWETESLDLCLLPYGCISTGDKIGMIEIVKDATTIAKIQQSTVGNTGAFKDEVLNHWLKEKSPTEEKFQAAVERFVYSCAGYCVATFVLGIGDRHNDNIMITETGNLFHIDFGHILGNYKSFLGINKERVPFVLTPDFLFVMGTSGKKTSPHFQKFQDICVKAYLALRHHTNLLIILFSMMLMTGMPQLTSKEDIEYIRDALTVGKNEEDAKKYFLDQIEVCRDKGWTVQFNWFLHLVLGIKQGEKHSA
T2 sequence (P42336 whole entry): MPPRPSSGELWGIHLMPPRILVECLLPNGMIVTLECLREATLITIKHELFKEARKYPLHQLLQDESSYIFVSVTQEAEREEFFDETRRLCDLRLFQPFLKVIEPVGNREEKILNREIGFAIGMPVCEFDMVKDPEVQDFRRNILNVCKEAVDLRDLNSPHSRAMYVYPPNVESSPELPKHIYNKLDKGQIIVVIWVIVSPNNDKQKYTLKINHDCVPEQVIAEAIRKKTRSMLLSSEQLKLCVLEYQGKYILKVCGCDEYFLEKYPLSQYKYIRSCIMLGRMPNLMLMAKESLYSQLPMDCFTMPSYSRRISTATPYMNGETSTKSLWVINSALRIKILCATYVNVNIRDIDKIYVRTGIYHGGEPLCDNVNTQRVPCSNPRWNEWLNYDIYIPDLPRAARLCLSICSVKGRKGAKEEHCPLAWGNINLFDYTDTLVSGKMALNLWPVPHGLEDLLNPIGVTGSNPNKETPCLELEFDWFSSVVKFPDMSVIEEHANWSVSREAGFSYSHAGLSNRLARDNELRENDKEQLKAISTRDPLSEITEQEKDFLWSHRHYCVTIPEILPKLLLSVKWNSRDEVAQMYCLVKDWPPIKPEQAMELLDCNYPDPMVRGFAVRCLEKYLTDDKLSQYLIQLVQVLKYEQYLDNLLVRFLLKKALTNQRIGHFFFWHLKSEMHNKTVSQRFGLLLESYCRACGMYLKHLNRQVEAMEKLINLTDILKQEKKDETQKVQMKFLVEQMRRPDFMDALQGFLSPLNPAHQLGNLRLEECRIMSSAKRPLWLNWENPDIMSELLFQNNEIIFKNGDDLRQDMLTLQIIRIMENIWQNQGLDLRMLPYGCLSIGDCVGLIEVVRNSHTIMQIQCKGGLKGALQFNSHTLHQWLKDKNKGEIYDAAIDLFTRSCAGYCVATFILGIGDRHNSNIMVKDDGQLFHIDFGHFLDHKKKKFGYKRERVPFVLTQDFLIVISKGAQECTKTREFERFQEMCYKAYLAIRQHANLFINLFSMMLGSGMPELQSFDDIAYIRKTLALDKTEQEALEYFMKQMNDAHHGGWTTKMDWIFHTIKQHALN
T2 sequence (P27986 whole entry partner): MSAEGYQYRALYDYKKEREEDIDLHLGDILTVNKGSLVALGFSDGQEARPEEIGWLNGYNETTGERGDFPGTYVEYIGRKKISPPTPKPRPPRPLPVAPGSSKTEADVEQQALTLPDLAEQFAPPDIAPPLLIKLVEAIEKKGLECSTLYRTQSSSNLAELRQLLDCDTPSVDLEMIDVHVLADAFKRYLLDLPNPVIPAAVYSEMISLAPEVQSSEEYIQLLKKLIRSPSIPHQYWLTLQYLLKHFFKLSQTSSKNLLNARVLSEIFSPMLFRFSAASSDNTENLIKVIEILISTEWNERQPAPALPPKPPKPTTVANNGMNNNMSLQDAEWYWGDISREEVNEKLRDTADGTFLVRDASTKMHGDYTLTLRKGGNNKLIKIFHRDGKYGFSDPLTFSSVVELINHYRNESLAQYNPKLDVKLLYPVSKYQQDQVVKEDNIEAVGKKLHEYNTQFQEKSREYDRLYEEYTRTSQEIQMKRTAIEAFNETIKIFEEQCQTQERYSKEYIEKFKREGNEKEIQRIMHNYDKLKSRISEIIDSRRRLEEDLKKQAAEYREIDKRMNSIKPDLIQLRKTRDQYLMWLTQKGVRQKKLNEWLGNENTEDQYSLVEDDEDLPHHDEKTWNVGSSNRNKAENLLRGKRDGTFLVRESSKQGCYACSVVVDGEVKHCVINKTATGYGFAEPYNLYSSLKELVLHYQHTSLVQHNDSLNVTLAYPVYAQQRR

Take `C[C@H](Nc1ncnc2cccnc12)c1cc2cc(F)ccc2c(=O)n1-c1ccccc1` [Compound I-6]: the IC50 (usually the point on the concentration scale where inhibition reaches its midpoint) was 1 to 10 µM on PI3Kγ, above 10 µM at PI3Kβ and 1 to 10 µM on PI3Kα. In addition, the concentration giving a half-maximal response (EC50) – broadly, the concentration giving half of the maximal effect – in the assay with Balb/c splenic B cells (1 μM to 100 nM) fell in the range of 100 to 1000 nM.
`Cc1nsc2cc(C(C)Nc3ncnc4cccnc34)n(-c3ccccc3)c(=O)c12` (stereo not drawn) [Compound I-27]: the figures for the IC50 on PI3Kγ and at PI3Kβ were 1 to 10 µM and above 10 µM, respectively. Moreover, the EC50 with Balb/c splenic B cells (1 μM to 100 nM) fell in the range of 100 to 1000 nM.
Regarding `COc1ccc(-c2cccc3cc([C@H](C)Nc4ncnc5cccnc45)n(-c4ccccc4)c(=O)c23)cn1` [Compound I-48], the IC50 on PI3Kβ is above 10 µM; at PI3Kα, 1 to 10 µM. The molecule also displayed a concentration giving a half-maximal response (EC50) with Balb/c splenic B cells ('Less than 100 nM') below 100 nM.
Take `C[C@H](Nc1ccnc2cccnc12)c1cc2cccc(Cl)c2c(=O)n1-c1cccc(F)c1` [Compound I-50]: the IC50 on PI3Kβ and on PI3Kα was 1 to 10 µM throughout. In the assay with Balb/c splenic B cells ('Less than 100 nM'), this molecule yielded a half-maximal effective concentration (EC50) below 100 nM.
Take `C[C@H](Nc1ccnc2cccnc12)c1cc2cccc(-c3cnn(C)c3)c2c(=O)n1-c1ccccc1` [Compound I-51]: the IC50 on PI3Kβ and on PI3Kα was 1 to 10 µM throughout. In addition, in the assay on Balb/c splenic B cells ('Less than 100 nM'), the EC50 was below 100 nM.
With `C[C@H](Nc1c(C#N)cnc2cccnc12)c1cc2cccc(Cl)c2c(=O)n1-c1ccccc1` [Compound I-53], the IC50 was 1 to 10 µM at PI3Kγ and above 10 µM on PI3Kβ.
For `C[C@H](Nc1c(C#N)cnc2cccnc12)c1cc2cccc(Cl)c2c(=O)n1-c1cccc(F)c1` [Compound I-54], in that order: 1 to 10 µM and above 10 µM.
For `C[C@H](Nc1c(C#N)cnc2cccnc12)c1cc2cccc(-c3cnn(C)c3)c2c(=O)n1-c1ccccc1` [Compound I-55], in that order: 1 to 10 µM and above 10 µM.
With `Cc1cccc2cc([C@H](C)Nc3ncnc4cccnc34)n(-c3cccc(F)c3)c(=O)c12` [Compound I-70], the IC50 at PI3Kβ and on PI3Kα was 1 to 10 µM each time. Moreover, the EC50 in the assay with Balb/c splenic B cells ('Less than 100 nM') is below 100 nM.
Turning to `COc1ncc(-c2cccc3cc([C@H](C)Nc4ncnc5cccnc45)n(-c4cccc(F)c4)c(=O)c23)cn1` [Compound I-73], the half-maximal inhibitory concentration (IC50) at PI3Kβ was above 10 µM; at PI3Kα, 1 to 10 µM. The molecule further displayed an EC50 in the assay with Balb/c splenic B cells ('Less than 100 nM') below 100 nM.
For `C[C@H](Nc1nc(N)nc2cccnc12)c1cc2cccc(-c3cncnc3)c2c(=O)n1-c1ccccc1` [Compound I-74], in that order: 1 to 10 µM, 1 to 10 µM and below 100 nM.
In the case of `C[C@H](Nc1nc(N)nc2cccnc12)c1cc2cccc(-c3ccnnc3)c2c(=O)n1-c1ccccc1` [Compound I-79], the IC50 on PI3Kβ and on PI3Kα was 1 to 10 µM each time. Besides, the EC50 in the assay on Balb/c splenic B cells ('Less than 100 nM') is below 100 nM.
For the molecule `C[C@H](Nc1nc(N)nc2cccnc12)c1cc2cccc(-c3ccnnc3)c2c(=O)n1-c1cccc(F)c1` [Compound I-80], the 50% inhibitory concentration (IC50) at PI3Kβ was above 10 µM; on PI3Kα it was 1 to 10 µM. The EC50 with Balb/c splenic B cells ('Less than 100 nM') is below 100 nM.
In the case of `Cc1ncc(-c2cccc3cc([C@H](C)Nc4nc(N)nc5cccnc45)n(-c4cccc(F)c4)c(=O)c23)cn1` [Compound I-84], the IC50 was above 10 µM at PI3Kβ and 1 to 10 µM on PI3Kα. In the assay on Balb/c splenic B cells ('Less than 100 nM'), this molecule came in with an EC50 below 100 nM.
For `CNc1nc(N[C@@H](C)c2cc3cccc(Cl)c3c(=O)n2-c2ccccc2)c2ncccc2n1` [Compound I-96], in that order: 1 to 10 µM, 1 to 10 µM and below 100 nM.
Take `C[C@H](Nc1ccnc2ccnn12)c1cc2cccc(Cl)c2c(=O)n1-c1cccc(F)c1` [II-4]: the IC50 at PI3Kβ and at PI3Kα was 1 to 10 µM throughout. The EC50 with Balb/c splenic B cells ('Less than 100 nM') is below 100 nM.
On to `C[C@H](Nc1ccnc2ccnn12)c1cc2cccc(-c3cnn(C)c3)c2c(=O)n1-c1ccccc1` [II-5, (S)-8-(1-methyl-1H-pyrazol-4-yl)-2-phenyl-3-(1-(pyrazolo[1,5-a]pyrimidin-7-ylamino)ethyl)isoquinolin-1(2H)-one], for which the concentration for half-maximal inhibition (IC50) on PI3Kβ and at PI3Kα was 1 to 10 µM throughout. Further, in the assay on Balb/c splenic B cells ('Less than 100 nM'), the EC50 was below 100 nM.
With `C[C@H](Nc1ccnc2ccnn12)c1cc2cccc(-c3cnn(C)c3)c2c(=O)n1C1CC1` [II-8], the IC50 at PI3Kγ, at PI3Kβ and at PI3Kα was 1 to 10 µM in each case.
`C[C@H](Nc1ccnc2ccnn12)c1cc2cccc(-c3cnn(C)c3)c2c(=O)n1-c1cccc(F)c1` [II-9]: the results for the IC50 on PI3Kβ and on PI3Kα were above 10 µM and 1 to 10 µM, respectively. In the assay with Balb/c splenic B cells ('Less than 100 nM'), this molecule displayed an EC50 below 100 nM.
For `C[C@H](Nc1ccnn2ccnc12)c1cc2cccc(-c3cnn(C)c3)c2c(=O)n1-c1cccc(F)c1` [II-17], in that order: above 10 µM, 1 to 10 µM and below 100 nM.
Turning to `C[C@H](Nc1ccnn2ccnc12)c1cc2cccc(-c3cnn(C)c3)c2c(=O)n1-c1ccccc1` [II-18], the IC50 at PI3Kβ and at PI3Kα was 1 to 10 µM in each case. This molecule also came in with an EC50 with Balb/c splenic B cells ('Less than 100 nM') below 100 nM.
In the case of `C[C@H](Nc1ncnc2ccnn12)c1cc2cccc(Cl)c2c(C(=O)N2CCOCC2)n1` [II-44], the IC50 at PI3Kγ is 1 to 10 µM; at PI3Kβ, 1 to 10 µM; on PI3Kα, above 10 µM.
`C[C@H](Nc1ccnn2ccnc12)c1cc2cccc(-c3cnn(C)c3)c2c(=O)n1C1CC1` [II-45]: the IC50 on PI3Kβ and at PI3Kα was 1 to 10 µM each time. For the same molecule, the EC50 in the assay on Balb/c splenic B cells ('Less than 100 nM') is below 100 nM.
Turning to `C[C@H](Nc1ncnc2cccnc12)c1cc2cccc(C(F)(F)F)c2c(=O)n1-c1cccc(F)c1` [III-12], the IC50 at PI3Kβ and on PI3Kα was 1 to 10 µM each time. In the assay with Balb/c splenic B cells ('Less than 100 nM'), this molecule returned an EC50 below 100 nM.
Consider `C[C@H](Nc1cc(Cl)nn2ccnc12)c1cc2cccc(C(F)(F)F)c2c(=O)n1-c1cccc(F)c1` [III-14], for which the figures for the IC50 at PI3Kγ and on PI3Kβ were 1 to 10 µM and above 10 µM, respectively.
Consider `C[C@H](Nc1ccnn2ccnc12)c1cc2cccc(C(F)(F)F)c2c(=O)n1-c1cccc(F)c1` [III-15], for which the half-maximal inhibitory concentration (IC50) on PI3Kβ and on PI3Kα was 1 to 10 µM each time. The molecule also yielded an EC50 in the assay on Balb/c splenic B cells ('Less than 100 nM') below 100 nM.
As for `Cc1nc2c(N[C@@H](C)c3cc4cccc(C(F)(F)F)c4c(=O)n3-c3ccccc3)ncnc2s1` [III-26], the IC50 on PI3Kγ was 1 to 10 µM; on PI3Kβ it was above 10 µM.
In the case of `Cc1cn2nccc(N[C@@H](C)c3cc4cccc(C(F)(F)F)c4c(=O)n3-c3ccccc3)c2n1` [III-29], the half-inhibitory concentration (IC50) was 1 to 10 µM on PI3Kγ and above 10 µM at PI3Kβ.
On to `C[C@H](Nc1c(C#N)cnc2cccnc12)c1cc2cccc(C(F)(F)F)c2c(=O)n1-c1ccccc1` [III-37], for which the values for the IC50 at PI3Kγ and at PI3Kβ were 1 to 10 µM and above 10 µM, respectively.
On to `C[C@H](Nc1ncnc2[nH]cnc12)c1cc2scc(C(F)(F)F)c2c(=O)n1-c1ccccc1` [III-40], for which the IC50 at PI3Kγ was in the range of 1 to 10 µM.
Regarding `C[C@H](Nc1ncnc2cccnc12)c1cc2scc(C(F)(F)F)c2c(=O)n1-c1ccccc1` [III-41], the IC50 at PI3Kγ was 1 to 10 µM; at PI3Kβ, above 10 µM. In the assay with Balb/c splenic B cells ('Less than 100 nM'), the EC50 is below 100 nM.
With `COc1nc(N[C@@H](C)c2cc3cccc(C(F)(F)F)c3c(=O)n2-c2cccc(F)c2)c2ncccc2n1` [III-43], the IC50 on PI3Kγ was 1 to 10 µM; on PI3Kβ it was above 10 µM.
On to `C[C@H](Nc1ncnc(N)n1)c1cc2cccc(Cl)c2c(=O)n1-c1cccc(F)c1` [IV-2], for which the results for the IC50 on PI3Kγ and on PI3Kβ were 1 to 10 µM and above 10 µM, respectively. Further, in the assay on Balb/c splenic B cells ('Less than 100 nM'), the EC50 was below 100 nM.
